Assay results reported in patent US8877734B2, “Seleny-methyluracil compounds, radiosensitizer and pharmaceutical composition using them” (Kongju National University Industry-University Cooperation …, priority 2010, dated 2014).

Tested on: Human lung cancer cell line H460
Experiment: Cytotoxicity test on cancer cells (water-soluble tetrazolium salt colorimetric assay)
Assay type: cell-based
Conditions: for IC50: Homo sapiens, NCI-H460, H460 cells, compound alone without radiation, after a lapse of 72 hours, read-out: IC50 value, the concentration where 50% cells are killed; for cytotoxic effect when applied alone: cancer cell line H460, without the combined radiation treatment
Protocol: Human lung cancer cell line H460 was used in the present test. Firstly, the H460 cell line was cultured in RPMI 1640 medium with 100 U/mL of penicillin, […] of streptomycin and 10% FBS, under the condition of 37° C. and 5% CO2 atmosphere. The cultured cells were placed on a 96-well-plate at the initial cell density of about 2×10^3 cells. In about 24 hours, the cells on the 96-well-plate were treated with the compound 1 and the compound 7 at a designated concentration for 48 hours. The relative cell viability was quantitatively determined by a colorimetric assay using a water-soluble tetrazolium salt. Optical density at 450 nm was measured by an automatic micro plate reader. The results were represented in FIGS. 1 and 2 in the drawings attached to the present specification. As shown in the test example 1, FIG. 1 and FIG. 2, the lung cancer cell line (H460) was treated with the compound 1 (MeSe-T), then after a lapse of 72 hours, IC50 value thereof, that is the concentration where 50% cells are killed, were about 100 μM.

Row | SMILES | IC50 | cytotoxic effect when applied alone
1 | C[Se]Cc1cn([C@H]2CC(O)[C@@H](CO)O2)c(=O)[nH]c1=O (stereo partly shown) [compound 1, 5-methylselenyl-methyl-2′-deoxy uridine] | ~100 µM | weak cytotoxic effect
2 | O=c1[nH]c(=O)n([C@H]2CC(O)[C@@H](CO)O2)cc1C[Se]c1ccccc1 (stereo partly shown) [compound 7, 5-phenylselenyl-methyl-2′-deoxy uridine] | ~500 µM | weak cytotoxic effect
